Assay results reported in paper PMC4821887, “Identification of chemicals that mimic transcriptional changes associated with autism, brain aging and neurodegeneration” (Nature Communications, 2016).

Tested on: mouse cortical cultures
Test: RNA-seq differential expression (DESeq) against matched vehicle
Assay type: cell-based
Design: key to MeanFenamidone Bcl11b / MeanFenamidone Slc12a4 / MeanFenamidone Abca1 / MeanFenamidone Hmox1 / MeanFenamidone Il1rap / MeanFenamidone Cyba / MeanFenamidone Narf / MeanFenamidone Bnip3 / MeanFenamidone Amotl2 / MeanFenamidone Gad2 / MeanFenamidone Vsnl1 / MeanFenamidone Fam178a: DESeq mean of counts over RefSeq exons
Procedure: Figure 4 Cluster 2 chemicals alter expression of a common set of genes. […] RNA-seq was performed in quadruplicate after treating cortical cultures with fenamidone (10 μM) or pyraclostrobin (0.1 μM) for 24 h (n=3 biological replicates) and compared with matched vehicle controls using DESeq to detect differentially expressed genes, listed in Supplementary Data 4.
Cultures were treated with the non-cytotoxic dose of each chemical, by exchanging half of the original medium with chemicals at 2 × concentration in prewarmed feeding medium, on DIV 7 for 24 h in 12-well plates at a density of 5 × 10^5 cells per well. RNA was isolated using RNeasy plus mini kit (Cat. #74134, Qiagen). […]. Samples were further assessed for quality using either an Agilent Bioanalyzer 2100 or TapeStation 2200 to obtain a RIN. RIN values exceeding 7 were used for sequencing. RNA samples were used to generate and barcode complementary DNA libraries using the TruSeq RNA Library Preparation Kit at the UNC High Throughput Sequencing Facility. Pools of 24 multiplexed samples were sequenced per lane on an Illumina HiSeq 2500 using 50-bp paired-end reads.
RNA-seq reads were filtered using TagDust and aligned to the reference mouse genome (mm9) with TopHat using default parameters. Reads aligning to ribosomal RNA genes were removed. Transcript abundance was estimated by computing Reads per kilobase per million mapped reads (RPKM) using RefSeq gene models aggregated by gene symbol. For differential expression analyses, raw counts over RefSeq exons were used, and then were compared across samples using DESeq[62].

CSC1=N[C@@](C)(c2ccccc2)C(=O)N1Nc1ccccc1 [fenamidone]
MeanFenamidone Kirrel (gene Kirrel, DESeq mean, 4 reps): 376.176 | log2FoldChange Kirrel (gene Kirrel, vs vehicle, 4 reps): 1.966 | MeanFenamidone Klf3 (gene Klf3, DESeq mean, 4 reps): 165.964 | log2FoldChange Klf3 (gene Klf3, vs vehicle, 4 reps): 1.6001 | MeanFenamidone Lama5 (gene Lama5, DESeq mean, 4 reps): 696.831 | log2FoldChange Lama5 (gene Lama5, vs vehicle, 4 reps): 3.008 | MeanFenamidone Lamc1 (gene Lamc1, DESeq mean, 4 reps): 1262.75 | log2FoldChange Lamc1 (gene Lamc1, vs vehicle, 4 reps): 1.942 | MeanFenamidone Lats2 (gene Lats2, DESeq mean, 4 reps): 789.339 | log2FoldChange Lats2 (gene Lats2, vs vehicle, 4 reps): 2.05 | MeanFenamidone (gene Lgals1): 315.526 | log2FoldChange (gene Lgals1): 2.643 | MeanFenamidone Lgals3 (gene Lgals3, DESeq mean, 4 reps): 148.009 | log2FoldChange Lgals3 (gene Lgals3, vs vehicle, 4 reps): 3.47 | MeanFenamidone Lhfp (gene Lhfp, DESeq mean, 4 reps): 460.237 | log2FoldChange Lhfp (gene Lhfp, vs vehicle, 4 reps): 1.564 | MeanFenamidone (gene Lhx6): 36.2637 | log2FoldChange (gene Lhx6): -1.466 | MeanFenamidone Lif (gene Lif, DESeq mean, 4 reps): 71.2282 | log2FoldChange Lif (gene Lif, vs vehicle, 4 reps): 2.278 | MeanFenamidone Lima1 (gene Lima1, DESeq mean, 4 reps): 304.711 | log2FoldChange Lima1 (gene Lima1, vs vehicle, 4 reps): 2.122 | MeanFenamidone Lipa (gene Lipa, DESeq mean, 4 reps): 195.186 | log2FoldChange Lipa (gene Lipa, vs vehicle, 4 reps): 1.701 | MeanFenamidone (gene Lpp): 386.544 | log2FoldChange (gene Lpp): 2.227 | MeanFenamidone (gene Lrig1): 287.461 | log2FoldChange (gene Lrig1): 1.313 | MeanFenamidone Lrp2 (gene Lrp2, DESeq mean, 4 reps): 218.41 | log2FoldChange Lrp2 (gene Lrp2, vs vehicle, 4 reps): 3.259 | MeanFenamidone Lrp5 (gene Lrp5, DESeq mean, 4 reps): 104.9 | log2FoldChange Lrp5 (gene Lrp5, vs vehicle, 4 reps): 2.141 | MeanFenamidone Lrrk1 (gene Lrrk1, DESeq mean, 4 reps): 150.568 | log2FoldChange Lrrk1 (gene Lrrk1, vs vehicle, 4 reps): 2.538 | MeanFenamidone Lrrk2 (gene Lrrk2, DESeq mean, 4 reps): 55.3056 | log2FoldChange Lrrk2 (gene Lrrk2, vs vehicle, 4 reps): 2.7898 | MeanFenamidone Lsm11 (gene Lsm11, DESeq mean, 4 reps): 253.873 | log2FoldChange Lsm11 (gene Lsm11, vs vehicle, 4 reps): -1.609 | MeanFenamidone Lzts1 (gene Lzts1, DESeq mean, 4 reps): 28.4823 | log2FoldChange Lzts1 (gene Lzts1, vs vehicle, 4 reps): -2.067 | MeanFenamidone Maff (gene Maff, DESeq mean, 4 reps): 142.888 | log2FoldChange Maff (gene Maff, vs vehicle, 4 reps): 2.5091 | MeanFenamidone (gene Man2b1): 147.398 | log2FoldChange (gene Man2b1): 1.707 | MeanFenamidone (gene Map9): 691.478 | log2FoldChange (gene Map9): -1.0525 | MeanFenamidone Mapkapk3 (gene Mapkapk3, DESeq mean, 4 reps): 109.426 | log2FoldChange Mapkapk3 (gene Mapkapk3, vs vehicle, 4 reps): 2.329 | MeanFenamidone Mdk (gene Mdk, DESeq mean, 4 reps): 140.699 | log2FoldChange Mdk (gene Mdk, vs vehicle, 4 reps): 2.08 | MeanFenamidone (gene Mdm2): 455.963 | log2FoldChange (gene Mdm2): 1.1 | MeanFenamidone Mllt11 (gene Mllt11, DESeq mean, 4 reps): 1306.3 | log2FoldChange Mllt11 (gene Mllt11, vs vehicle, 4 reps): -1.396 | MeanFenamidone Mpp6 (gene Mpp6, DESeq mean, 4 reps): 437.651 | log2FoldChange Mpp6 (gene Mpp6, vs vehicle, 4 reps): 1.381 | MeanFenamidone Msn (gene Msn, DESeq mean, 4 reps): 1825.06 | log2FoldChange Msn (gene Msn, vs vehicle, 4 reps): 2.348 | MeanFenamidone Mturn (gene Mturn, DESeq mean, 4 reps): 252.358 | log2FoldChange Mturn (gene Mturn, vs vehicle, 4 reps): -1.427 | MeanFenamidone Myh9 (gene Myh9, DESeq mean, 4 reps): 944.67 | log2FoldChange Myh9 (gene Myh9, vs vehicle, 4 reps): 2.571 | MeanFenamidone (gene Myl9): 343.782 | log2FoldChange (gene Myl9): 2.6473 | MeanFenamidone Myl12a (gene Myl12a, DESeq mean, 4 reps): 537.985 | log2FoldChange Myl12a (gene Myl12a, vs vehicle, 4 reps): 2.298 | MeanFenamidone (gene Myo9b): 246.577 | log2FoldChange (gene Myo9b): 1.347 | MeanFenamidone Myof (gene Myof, DESeq mean, 4 reps): 104.99 | log2FoldChange Myof (gene Myof, vs vehicle, 4 reps): 3.761 | MeanFenamidone Nap1l2 (gene Nap1l2, DESeq mean, 4 reps): 81.273 | log2FoldChange Nap1l2 (gene Nap1l2, vs vehicle, 4 reps): -1.959 | MeanFenamidone Nap1l3 (gene Nap1l3, DESeq mean, 4 reps): 110.395 | log2FoldChange Nap1l3 (gene Nap1l3, vs vehicle, 4 reps): -1.464 | MeanFenamidone Narf (gene Narf, DESeq mean, 4 reps): 102.622 | log2FoldChange Narf (gene Narf, vs vehicle, 4 reps): -2.14 | MeanFenamidone (gene Ndrg4): 999.172 | log2FoldChange (gene Ndrg4): -1.28 | MeanFenamidone Nefl (gene Nefl, DESeq mean, 4 reps): 284.238 | log2FoldChange Nefl (gene Nefl, vs vehicle, 4 reps): -1.45 | MeanFenamidone (gene Neurl1a): 95.3821 | log2FoldChange (gene Neurl1a): -1.321 | MeanFenamidone Notch1 (gene Notch1, DESeq mean, 4 reps): 316.63 | log2FoldChange Notch1 (gene Notch1, vs vehicle, 4 reps): 1.887 | MeanFenamidone Notch3 (gene Notch3, DESeq mean, 4 reps): 258.391 | log2FoldChange Notch3 (gene Notch3, vs vehicle, 4 reps): 2.018 | MeanFenamidone Npnt (gene Npnt, DESeq mean, 4 reps): 335.437 | log2FoldChange Npnt (gene Npnt, vs vehicle, 4 reps): 1.337 | MeanFenamidone (gene Npr2): 171.686 | log2FoldChange (gene Npr2): 1.617 | MeanFenamidone (gene Nrep): 2228.26 | log2FoldChange (gene Nrep): -1.081 | MeanFenamidone (gene Nrg1): 57.9878 | log2FoldChange (gene Nrg1): 2.155 | MeanFenamidone (gene Nrxn3): 100.585 | log2FoldChange (gene Nrxn3): -1.713 | MeanFenamidone (gene Nsmf): 509.681 | log2FoldChange (gene Nsmf): -1.17 | MeanFenamidone Nuak2 (gene Nuak2, DESeq mean, 4 reps): 199.356 | log2FoldChange Nuak2 (gene Nuak2, vs vehicle, 4 reps): 1.954 | MeanFenamidone (gene Nup93): 78.3583 | log2FoldChange (gene Nup93): 1.518 | MeanFenamidone Nxph1 (gene Nxph1, DESeq mean, 4 reps): 23.0758 | log2FoldChange Nxph1 (gene Nxph1, vs vehicle, 4 reps): -2.821 | MeanFenamidone Nxph2 (gene Nxph2, DESeq mean, 4 reps): 12.3649 | log2FoldChange Nxph2 (gene Nxph2, vs vehicle, 4 reps): -2.898 | MeanFenamidone P2ry2 (gene P2ry2, DESeq mean, 4 reps): 92.6995 | log2FoldChange P2ry2 (gene P2ry2, vs vehicle, 4 reps): 2.7714 | MeanFenamidone (gene Parp3): 104.686 | log2FoldChange (gene Parp3): 1.933 | MeanFenamidone (gene Pcdh9): 219.607 | log2FoldChange (gene Pcdh9): -1.474 | MeanFenamidone (gene Pcdh17): 217.631 | log2FoldChange (gene Pcdh17): -1.1203 | MeanFenamidone Pcdh19 (gene Pcdh19, DESeq mean, 4 reps): 219.013 | log2FoldChange Pcdh19 (gene Pcdh19, vs vehicle, 4 reps): -1.519 | MeanFenamidone (gene Pcdhb9): 20.2277 | log2FoldChange (gene Pcdhb9): -1.874 | MeanFenamidone Pcyt1b (gene Pcyt1b, DESeq mean, 4 reps): 228.459 | log2FoldChange Pcyt1b (gene Pcyt1b, vs vehicle, 4 reps): -1.515 | MeanFenamidone Pdlim5 (gene Pdlim5, DESeq mean, 4 reps): 799.854 | log2FoldChange Pdlim5 (gene Pdlim5, vs vehicle, 4 reps): 2.0349 | MeanFenamidone Pgm2l1 (gene Pgm2l1, DESeq mean, 4 reps): 972.539 | log2FoldChange Pgm2l1 (gene Pgm2l1, vs vehicle, 4 reps): -1.841 | MeanFenamidone Phlda3 (gene Phlda3, DESeq mean, 4 reps): 537.092 | log2FoldChange Phlda3 (gene Phlda3, vs vehicle, 4 reps): 1.998 | MeanFenamidone Phldb2 (gene Phldb2, DESeq mean, 4 reps): 121.953 | log2FoldChange Phldb2 (gene Phldb2, vs vehicle, 4 reps): 2.252 | MeanFenamidone (gene Phyh): 85.5792 | log2FoldChange (gene Phyh): 1.618 | MeanFenamidone Piezo1 (gene Piezo1, DESeq mean, 4 reps): 449.998 | log2FoldChange Piezo1 (gene Piezo1, vs vehicle, 4 reps): 2.353 | MeanFenamidone Plcb3 (gene Plcb3, DESeq mean, 4 reps): 85.3651 | log2FoldChange Plcb3 (gene Plcb3, vs vehicle, 4 reps): 2.324 | MeanFenamidone (gene Plec): 505.373 | log2FoldChange (gene Plec): 1.462 | MeanFenamidone Plekha7 (gene Plekha7, DESeq mean, 4 reps): 128.547 | log2FoldChange Plekha7 (gene Plekha7, vs vehicle, 4 reps): 1.951 | MeanFenamidone Plekhg2 (gene Plekhg2, DESeq mean, 4 reps): 436.894 | log2FoldChange Plekhg2 (gene Plekhg2, vs vehicle, 4 reps): 2.353 | MeanFenamidone Plxnb2 (gene Plxnb2, DESeq mean, 4 reps): 1959.53 | log2FoldChange Plxnb2 (gene Plxnb2, vs vehicle, 4 reps): 1.762 | MeanFenamidone (gene Pnma2): 202.102 | log2FoldChange (gene Pnma2): -1.217 | MeanFenamidone (gene Ppard): 113.665 | log2FoldChange (gene Ppard): 1.493 | MeanFenamidone Ppm1e (gene Ppm1e, DESeq mean, 4 reps): 435.513 | log2FoldChange Ppm1e (gene Ppm1e, vs vehicle, 4 reps): -1.5474 | MeanFenamidone Pqlc3 (gene Pqlc3, DESeq mean, 4 reps): 109.637 | log2FoldChange Pqlc3 (gene Pqlc3, vs vehicle, 4 reps): 2.1113 | MeanFenamidone Prkcg (gene Prkcg, DESeq mean, 4 reps): 26.526 | log2FoldChange Prkcg (gene Prkcg, vs vehicle, 4 reps): -1.929 | MeanFenamidone (gene Prkcz): 141.39 | log2FoldChange (gene Prkcz): -1.24 | MeanFenamidone (gene Prrt2): 169.168 | log2FoldChange (gene Prrt2): -1.281 | MeanFenamidone (gene Prss23): 845.081
